In patent US20230158176A1, “NEAR-INFRARED FLUORESCENT SMALL-MOLECULE PROBE, SYNTHESIS METHOD AND APPLICATION THEREOF” (Linyi University, priority 2021, published 2023):

Legend:
[1] = In vitro photothermal efficiency under 808 nm laser radiation; assay type: physicochemical; conditions: for highest temperature of the solution: 2.0 W/cm^2, solutions 0.2-1.2 mg/mL in PBS
Experimental: To evaluate in vitro thermogenesis of IR-780 solution and IR-780-F solution, 10 millimoles per litter (mM) IR-780-F solution dissolved in the dimethyl sulfoxide is used, and the IR-780-F solution is respectively diluted to the concentrations of 0.2 milligrams per milliliters (mg/mL), 0.4 mg/mL, 0.8 mg/mL, and 1.2 mg/mL with the phosphate buffered saline and these IR-780-F solutions and the phosphate buffered saline are evaluated. The IR-780 solution is prepared as above.
Temperature changes of the IR-780-F solutions and the phosphate buffered saline and temperature changes of the IR-780 solutions and the phosphate buffered saline are respectively recorded by using an infrared thermal imaging camera (a model of FLIR-E6). The phosphate buffered saline as a control group, 0.2 mg/mL of the IR-780-F solution and 0.2 mg/mL of the IR-780 solution, 0.4 mg/mL of the IR-780-F solution and 0.4 mg/mL of the IR-780 solution, 0.8 mg/mL of the IR-780-F solution and 0.8 mg/mL of the IR-780 solution, 1.2 mg/mL of the IR-780-F solution and 1.2 mg/mL of the IR-780 solution are all exposed to 808 nm laser radiation with a power density of 2.0 Watt per square centimeter (W/cm^2) to be measured and recorded the temperature changes.

[2] = test system: murine mammary carcinoma cells (4T1 cells); assay: In vitro evaluation of cytotoxicity by CCK-8; assay type: cell-based; conditions: 10 μM to 60 μM, incubated 1 h
Experimental: Respective toxicity of the IR-780-F solution and the IR-780 solution with concentrations from 10 μM to 60 μM on murine mammary carcinoma cells (also referred to as 4T1 cells) is measured by cell counting kit-8 (CCK-8). Incubated 4T1 cells are collected and centrifuged to prepare cell suspensions, and a cell concentration is adjusted to 8×10^4 cells per milliliter. The 4T1 cells are transferred to 96-well plates, and 100 microliters (μL) 4T1 cells are added to each well, so that a density of the cells to be tested is about 8000 cells per well, and the number of the 96-well plates for experiment is two. The two 96-well plates inoculated with the cells to be tested are placed in an incubator at 37° C. for 12 h. One plate is incubated with the IR-780-F solutions with a concentration gradient from 10 μM to 60 μM for 1 h; the other plate is incubated with the IR-780 solutions with a concentration gradient from 10 μM to 60 μM for 1 h. After the end of incubation, CCK-8 reagent (a volume of 10 μL, a concentration of 5 mg/mL, i.e. 0.5% CCK-8 reagent) is immediately added to the each well and the two 96-well plates continue to incubate for 40 min. Finally, absorptivity and intensity of the each well are tested by an enzyme calibration, and cell viability of the control group is taken as 100%, and the cell viability of the test groups are taken as the percentage of the control group.

[3] = Molecular spectrum test (absorption and emission spectra); assay type: physicochemical; conditions: for maximum emission wavelength: λex 740 nm
Experimental: A certain mass of the IR-780-F sample is weighed and dissolved in dimethyl sulfoxide (DMSO) to obtain a solving solution, and the quantitative solving solution is added to 2-[4-(2-hydroxyethyl)-1-piperazinyl]-ethanesulfonic acid (HEPES, also referred to as C8H18N2O4S) buffer solution to form a solution with a concentration of 10.0 micromoles per liter […] (containing 10% dimethyl sulfoxide) and an absorption spectrum of the IR-780-F sample is measured. Ultraviolet absorption spectrum is obtained by Agilent Ultraviolet-Vis spectrophotometer with a scanning wavelength range from 500 nanometers (nm) to 900 nm at a sweep rate of 1002 nanometers per minute (nm/min). Furthermore, addition quantitative solving solution is respectively added to methanol, acetonitrile, phosphate buffered saline (PBS buffer solution), HEPES buffer solution, bovine serum and adult serum to form a solution with a concentration of 10.0 μM (containing 10% dimethyl sulfoxide) to test an emission spectrum of the IR-780-F sample. Hitachi F-4600 […] is used to obtain FT-IR emission spectrum, of the scanning wavelength is from 750 nm to 900nm, an excitation wavelength λex is 740 nm, an excitation slit width is 5 nm, and an emission slit width is 5 nm.

[4] = test system: 4T1 tumor-bearing nude mice; assay: In vivo NIR fluorescence imaging / distribution in tumor-bearing mice; set-up: species or system BALB/c Nude mice; conditions: 4 mg/kg via tail vein
Experimental: (§1) The incubated 4T1 cells are collected by centrifugation, rinsed three times with PBS buffer solution to prepare cell suspensions, which are used a cell counter to count cell number. The cell suspensions are respectively diluted to desired concentrations with the PBS buffer solution. The pretreated 4T1 cells (about 1×10^6 per 100 μL) are injected subcutaneously into right hind legs of BALB/c Nude mice and tumor model mice are obtained after about one week.
In order to determine an optimal time for in vivo photothermal treatment with the IR-780-F, tissue permeability and distribution of the IR-780-F in tumor-bearing mice are examined by means of a whole animal near infrared (NIR) imaging system. An injection of the IR-780-F (containing 12.4% dimethyl sulfoxide) is prepared with PBS buffer solution. When the tumors in the tumor-bearing mice grow to a certain volume, 4 milligrams per kilogram of the tumor-bearing mice (mg/kg) IR-780-F is injected into the tumor-bearing mice via tail vein. The anesthetized nude mice are placed into a in vivo imaging apparatus (also referred to as living imaging apparatus) and subjected to fluorescence imaging at 0 h, 2 h, 4 h, 8 h, 12 h, 24 h, 48 h, 72 h, 96 h and 120 h. […] The organs are placed in the living imaging apparatus to observe fluorescence distribution of each organ.

[5] = test system: 4T1 tumor-bearing nude mice; assay: Photothermal treatment effect in tumor-bearing mice; assay type: in vivo, BALB/c Nude mice
Experimental: as §1
After successful tumor loading, mice with an average tumor diameter of about 10×10 mm are randomly divided into four groups (5 mice in each group): (1) control group: intratumoral injection of 0.1 mL of saline; (2) laser group: intratumoral injection of 0.1 mL of saline followed by a laser radiation (a wavelength of 808 nm, 2.0 W/cm^2, 4 min); (3) IR-780-F group: intratumoral injection of 0.1 mL (corresponding to 80 micrograms abbreviated μg) of the IR-780-F solution without the laser radiation; (4) IR-780-F+laser group: intratumoral injection of 80 μg of the IR-780-F solution followed by the laser radiation (a wavelength of 808 mn, 2.0 W/cm^2, 4 min). The mice are anesthetized after administration of the medicine, and the tumor locations of the mice are placed under the laser radiation. When the laser irradiated the tumor locations of the mice, the temperature of the tumor locations under the laser radiation are simultaneously recorded when measured by the thermal infrared imager.

[6] = test system: 4T1 tumor-bearing nude mice; assay: Photothermal efficiency at tumor location in vivo; set-up: species or system BALB/c Nude mice; conditions: IR-780-F+laser radiation group, intratumoral injection, laser 4 minutes
Experimental: as §1
The injection of the IR-780-F (containing 12.4% dimethyl sulfoxide) is prepared with PBS buffer solution for intratumoral injection. After 12 hours, the nude mice are anesthetized, imaged using a photothermal imager, and temperature changes are recorded. The tumor locations of the mice are irradiated with a laser for 4 minutes, and then the photothermal imaging is again performed on the corresponding tumor locations to record the corresponding temperature.

Row | highest temperature of the solution [1] [°C] | Stoke shift value (difference between maximum emission wavelength and maximum absorption wavelength) [3] [nm] | maximum emission wavelength ([3]; in FBS) [nm] | maximum emission wavelength ([3]; in HAS) [nm] | maximum absorption wavelength ([3]; in HEPES, 10.0 μM, 10% dimethyl sulfoxide) [nm] | maximum emission wavelength ([3]; in HEPES) [nm] | maximum emission wavelength ([3]; in MeCN) [nm] | maximum emission wavelength ([3]; in MeOH) [nm] | distribution of near-infrared fluorescence in vivo ([4]; imaging 0-120 h) | Structure (SMILES) | cell viability of the 4T1 cells [2] | fluorescence distribution in dissected organs and tumors ([4]; dissected five days later) | tumor size ([5]; IR-780-F group: 80 μg intratumoral without laser radiation, 12th day) [mm^3] | tumor growth ([5]; IR-780-F without laser, compared with laser alone and control PBS group, P>0.05) | mean tumor size ([5]; IR-780-F+laser group: 80 μg intratumoral, 808 nm, 2.0 W/cm^2, 4 min, 12th day) [mm^3] | tumor volumes of excised tumors ([5]; IR-780-F+laser radiation group, sacrificed at the 12th day) | tumor growth ([5]; IR-780-F+laser radiation, P<0.01) | surface temperature of the tumor locations [6] [°C] | photothermal conversion effect compared with IR-780 [1]
1 | 69.3 |  |  |  |  |  |  |  |  | CCCN1/C(=C/C=C2\CCCC(/C=C/C3=[N+](CCC)c4ccccc4C3(C)C)=C2Cl)C(C)(C)c2ccccc21.[I-] [IR-780, reference compound] | decreases with the increase of the concentrations |  |  |  |  |  |  |  | 
2 | 69.3 | 38 | 820 | 818 | 773 | 804 | 816 | 814 | significant tumor targeting accumulation | CC1(C)C(/C=C/C2=C(Cl)C(=C/C=C3/N(CCC(F)(F)F)c4ccccc4C3(C)C)/CCC2)=[N+](CCC(F)(F)F)c2ccccc21 [IR-780-F] | decreases with the increase of the concentrations | mainly concentrated at the tumor location and there is weak fluorescence in the lungs | 559±49 | does not show a significant inhibition | 94±11 | significantly smaller than those in the other three groups | significantly inhibited | 52.9±0.2 | better photothermal conversion effect than that of the IR-780
